# Experimental data reported in patent US10087199B2, “Super-resolution imaging compositions and methods using same” (Yale University, priority 2014, dated 2018).
# “Also recorded” adds a separate entry of the source.
# Tests used:
# Format in all cases: cell-based
# [1] = test system: HeLa cells stably transfected to express GalNAcT2-GFP (Golgi); test: Incubation with premixed/preassembled Cer-SiR (Golgi labeling); conditions: approximately 2 μM Cer-SiR solution; three protocols A-C
# Method: An approximately 2 μM solution of Cer-SiR was prepared as follows: Stock solutions in DMSO of SiR-Tz and Cer-TCO were added to a PBS buffer supplemented with 1% casein to achieve a final concentration of 2 μM for both components. The solution was thoroughly mixed and incubated for 15 min at room temperature. Before the solution was added to dishes containing cells, Pluronic F-127 was added (0.2% final concentration). The formation of Cer-SiR was confirmed by HPLC.
# Protocol A: HeLa cells stably transfected to express GalNAcT2-GFP were cultured on 35 mm glass bottom dishes (Mattek), washed with DMEM (3×) and incubated with the Cer-SiR solution (prepared as described elsewhere herein) for 5 min at 37° C. The dish was washed with DMEM (3×) and incubated at 19.5° C. for 60 min, washed with DMEM (3×) and imaged.
# Protocol B: Same as protocol A, but without the wash step before the incubation at 19.5° C.
# Protocol C: HeLa cells stably transfected to express GalNAcT2-GFP were cultured on 35 mm glass bottom dishes (Mattek), washed with DMEM (3×) and incubated with the Cer-SiR solution described for 30 min at 4° C. The dish was washed with DMEM (3×) and incubated at 37° C. for 30 min, washed with DMEM (3×) and imaged. This protocol was similar to the protocol used for Golgi labeling with BODIPY-Cer.
# HeLa cells = test: Cell viability / cell- and photo-toxicity under prolonged imaging; conditions: at concentrations as high as 2 μM
# Method: In the experiments described above, the cells were exposed to Cer-TCO/SiR-Tz for minutes, a relatively short time period. To evaluate whether this Golgi labeling strategy would result in cell- or photo-toxicity over prolonged periods (such as hours), HeLa cells were treated with varying concentrations of either Cer-TCO/SiR-Tz or BODIPY® FL C5-ceramide (BODIPY-Cer) (Marks, et al., 2008, Cell Biol. 130:819-832; Pagano, et al., 1991, J. Cell Biol. 113:1267-1279), a commercially available fluorescent dye that labels the Golgi. […]
# Hela cells stably expressing GalNAcT2-GFP were cultured on 35 mm glass bottom dishes subsequently labeled with various concentrations of TCO-Cer (0, 1, 2, and 5 μM) and SiR-Tz (0, 1, and 2 μM) following the protocol described elsewhere herein. […] After equilibration for 30 min, phase contrast images were taken at an interval of 20 min and fluorescence images at an interval of 10 min over 400-750 min. […] The number of physically intact cells was counted at each time point. For each condition at least 110 cells were counted/observed in the initial images (n0 (0 μM TCO-Cer, 0 μM SiR-Tz)=123 cells, n0 (2 μM TCO-Cer, 2 μM SiR-Tz)=113 cells, n0 (1 μM TCO-Cer, 1 μM SiR-Tz)=130 cells, n0 (5 μM TCO-Cer, 1 μM SiR-Tz)=120 cells, n0 (5 μM BODIPY-Cer)=123 cells).
# [2] = test system: fixed cells with labeled Golgi; test: Photostability in STED microscopy of fixed cells; conditions: 0.52 frames/sec for 29 min (900 images)
# Method: To evaluate the merits of Cer-SiR for super-resolution imaging of the Golgi, HeLa cells that stably expressed GalNAcT2-GFP were labeled with Cer-TCO and SiR-Tz, and imaged by confocal and STED microscopy using a commercial Leica instrument (FIGS. 6A-6C). The confocal and STED images were compared in FIG. 6A. […] A direct comparison of the relative photostabilities of Cer-SiR and SiR-SNAP-Rab6 in fixed cells was performed using a custom STED microscope that is optimized for rapid image acquisition (FIG. 6B). Cells labeled with Cer-SiR or SiR-SNAPRab6 were continuously imaged at a rate of 0.52 frames/sec for 29 min (900 images) and the intensity of a line across the Golgi was plotted (FIG. 6B). […]
# STED imaging was performed on a custom built system (Bewersdorf lab, Yale University) centered around an 80 MHz mode-locked Ti:Sapphhire laser (Chameleon Ultra II, Coherent) tuned to 755 nm as the STED depletion beam. […] Excitation for fluorescence was accomplished with a 640 nm pulsed diode laser (PicoQuant) electronically synchronized to the depletion beam with an additional computer controlled electronic delay (Colby Instruments). The STED depletion and fluorescence excitation beams were combined with a dichroic mirror and directed into a 100×1.4 NA oil immersion objective lens (UPLSAPO 100XO/PSF, Olympus) where they were focused at the sample. […]
smiles,measurement,setting,value
"CCCCCCCCCCCCC/C=C/[C@@H](O)[C@H](CO)NC(=O)CCCCCNC(=O)OC1CCCC2=C(c3ccc(CNC(=O)c4ccc(C(=O)[O-])c(C5=C6C=CC(=[N+](C)C)C=C6[Si](C)(C)c6cc(N(C)C)ccc65)c4)cc3)NN=CC2CC1 (stereo partly drawn) [Cer-SiR, 4-((4-(7-(((6-(((2S,3R,E)-1,3-dihydroxyoctadec-4-en-2-yl)amino)-6-oxohexyl)carbamoyl)oxy)-2,4a,5,6,7,8,9,10-octahydrocycloocta[d]pyridazin-1-yl)benzyl)carbamoyl)-2-(7-(dimethylamino)-3-(dimethyliminio)-5,5-dimethyl-3,5-dihydrodibenzo[b,e]silin-10-yl)benzoate]",Golgi labeling with preassembled Cer-SiR,[1],not suitable for Golgi labeling; also recorded: did not lead to Golgi labeling
same,Toxicity,HeLa cells,non-toxic
same,Stability of STED images under continuous imaging,[2],stable throughout all 900 images
